This is an account of results in the NIST ThermoML archive (doi:10.1021/je7000039).

Numbers after ± are expanded uncertainties.

The conditions of this data set: Crystal; DTA.
For the compound `C[C@@H]1CC[C@H]2[C@@H](C)C(=O)O[C@@H]3O[C@@]4(C)CC[C@@H]1[C@]32OO4` [artemisinin], the Normal melting temperature is 148.28 ± 0.5 °C.
In the case of `C[C@H]1[C@H](OC(=O)CCC(=O)O)O[C@@H]2O[C@@]3(C)CC[C@H]4[C@H](C)CC[C@@H]1[C@@]24OO3` [artesunate], the Normal melting temperature was 139.66 ± 0.5 °C.
With `CO[C@H]1O[C@@H]2O[C@@]3(C)CC[C@H]4[C@H](C)CC[C@@H]([C@H]1C)[C@@]24OO3` [beta-artemether], the Normal melting temperature was found to be 83.98 ± 0.5 °C.
